As usually defined, the LD50 is the dose expected to kill half of the subjects tested.

The values that follow come from patent publication US4308274A, “N-Alkylsulfonyl-, N-arylsulfonyl-, and N-aminosulfonylaminosulfinylcarbamate esters” (priority 1979, dated 1981).

The test system of data set [1] is house flies, Musca domestica. Nature of the data set: insecticidal activity against house flies (topical, 24 hours mortality). The data set is classed as in vivo. The conditions noted are these: read-out: House flies LD50. How it is done:
Representative carbamate esters of the invention were tested for insecticidal activity against house flies, Musca domestica. Stock 1% concentrated solutions for each of the test compounds were made in acetone, and such solutions diluted with acetone to a concentration of 0.001-0.1%. House flies were treated topically on the notum by 1 μl of each of the diluted acetone solutions and percent mortality was counted 24 hours after application. The insects were held at a constant temperature of 60° F. Results are given in μg/g.

Data set [2] can be described thus: mammalian toxicity against Swiss white mice (oral). The conditions noted are these: mouse, in vivo, corn oil carrier. How it is done:
Mammalian toxicity was determined against Swiss white mice.

Where [3] appears, read: topical on the notum, 1 μl acetone solution, percent mortality 24 hours after application, 60° F.

Where two headings read alike, the source gives them in different places.

Turning to `CN(C(=O)Oc1cccc2c1OC(C)(C)C2)[S+]([O-])N(C)S(=O)(=O)c1ccccc1` (stereo not drawn) [Example I, 2,3-dihydro-2,2-dimethylbenzofuranyl-7N-(N'-benzenesulfonyl-N'-methylaminosulfinyl)-N-methylcarbamate], the LD50 came to 9.5 mg/kg in data set [1] (topical, 24 h) and 35 mg/kg in data set [2].

As for `CCCCN(CCCC)S(=O)(=O)N(C)[S+]([O-])N(C)C(=O)Oc1cccc2c1OC(C)(C)C2` (stereo not drawn) [Example IX, 2,3-dihydro-2,2-dimethylbenzofuranyl-7 N-(N'-dibutylaminosulfonyl-N'-methylaminosulfinyl)-N-methylcarbamate], the LD50 in data set [1] (topical, 24 h) is 12 mg/kg; in data set [2], 25 mg/kg.

Turning to `CN(C(=O)Oc1cccc2c1OC(C)(C)C2)[S+]([O-])N(C)S(=O)(=O)N1CCOCC1` (stereo not drawn) [Example X, 2,3-Dihydro-2,2-dimethylbenzofuranyl-7N-[N'-(N"-morpholinosulfonyl)-N'-methylaminosulfinyl]N-methylcarbamate], the LD50 in data set [1] (topical, 24 h) stood at 13 mg/kg.

Consider `CCN([S+]([O-])N(C)C(=O)Oc1cccc2c1OC(C)(C)C2)S(=O)(=O)N1CCOCC1` (stereo not drawn) [Example XI, 2,3-Dihydro-2,2-dimethylbenzofuranyl-7-N-(N'-morpholinosulfonyl-N'-ethylaminosulfinyl)-N-methylcarbamate], for which the LD50 in data set [1] (topical, 24 h) came out at 10 mg/kg.

Regarding `CCCCN(CCCC)S(=O)(=O)N(C)[S+]([O-])N(C)C(=O)ON=C(C)SC` (stereo not drawn) [Example XII, S-methyl N-[N'-(N"-dibutylaminosulfonyl-N"-methylaminosulfinyl)-N'-methylcarbamoyloxy]thioacetimidate], the LD50 in data set [1] (setting [3]) worked out at 9 mg/kg; in data set [2] it was 100 mg/kg.

`CC(C)Oc1ccccc1OC(=O)N(C)[S+]([O-])N(C)S(=O)(=O)c1ccccc1` (stereo not drawn) [II, 2-isopropoxyphenyl N-(N'-benzenesulfonyl-N'-methylaminosulfinyl)-N-methylcarbamate]: the LD50 was found to be 55 mg/kg in data set [1] (topical, 24 h) and 250 mg/kg in data set [2].

With `CC(C)c1cccc(OC(=O)N(C)[S+]([O-])N(C)S(=O)(=O)c2ccccc2)c1` (stereo not drawn) [III, 3-isopropylphenyl N-(N'-benzenesulfonyl-N'-methylaminosulfinyl)-N-methylcarbamate], the LD50 was found to be 95 mg/kg in data set [1] (topical, 24 h) and 150 mg/kg in data set [2].

Turning to `CN(C(=O)Oc1cccc2ccccc12)[S+]([O-])N(C)S(=O)(=O)c1ccccc1` (stereo not drawn) [IV, 1-naphthyl N-(N'-benzenesulfonyl-N'-methylaminosulfinyl)-N-methylcarbamate], the LD50 in data set [1] (topical, 24 h) is 450 mg/kg; in data set [2], > 500 mg/kg.

For `CSC(C)=NOC(=O)N(C)[S+]([O-])N(C)S(=O)(=O)c1ccccc1` (stereo not drawn) [V, S-methyl N-[N'-(N"-benzenesulfonyl-N"-methylaminosulfinyl)-N'-methylcarbamoyloxy]thioacetimidate], the LD50 in data set [1] (setting [3]) is 17.5 mg/kg; in data set [2], 86 mg/kg.

As to `CCN([S+]([O-])N(C)C(=O)Oc1cccc2c1OC(C)(C)C2)S(C)(=O)=O` (stereo not drawn) [VI, 2,3-dihydro-2,2-dimethylbenzofuranyl-7 N-(N'-methanesulfonyl-N'-ethylaminosulfinyl)-N-methylcarbamate], the median lethal dose (LD50) in data set [1] (topical, 24 h) turned out to be 12.5 mg/kg.

For the molecule `CCN([S+]([O-])N(C)C(=O)Oc1cccc(C(C)C)c1)S(C)(=O)=O` (stereo not drawn) [VII, 3-isopropylphenyl N-(N'-methanesulfonyl-N'-ethylaminosulfinyl)-N-methylcarbamate], the LD50 in data set [1] (topical, 24 h) was found to be 90 mg/kg; in data set [2], 200 mg/kg.

Regarding `CCN([S+]([O-])N(C)C(=O)ON=C(C)SC)S(C)(=O)=O` (stereo not drawn) [VIII, S-methyl N-[N'-(N"-methanesulfonyl-N"-ethylaminosulfinyl)-N'-methylcarbamoyloxy]thioacetimidate], the results for the LD50 in data set [1] (setting [3]) and in data set [2] were 25 mg/kg and 250 mg/kg, respectively.
